{
  "source": "patent US20130053350A1",
  "about": "“PPAR-SPARING THIAZOLIDINEDIONES AND COMBINATIONS FOR THE TREATMENT OF NEURODEGENERATIVE DISEASES” (Metabolic Solutions Development Company, LLC, priority 2009, published 2013)",
  "key": {"[1]": {"system": "PGC-1α", "test": "Synergy with norepinephrine on expression of PGC-1α mRNA in precursor BAT cells (quantitative PCR)", "assay_type": "cell-based", "settings": "3 μM compound for seven days, then 1 μM norepinephrine for 2 hours, vs control without compound", "protocol": "Another example of the ability of augmented signaling between cyclic nucleotides and compounds of Formula I is shown by the effect on expression of PGC-1α, a known regulator of mitochondrial biogenesis. Increased numbers of mitochondria are predictive of utility for the reduction of body weight.\nPrecursor BAT cells were isolated as described above and treated with or without 3 μM compounds: 1.] Compound X: 5-(4-(2-(5-ethylpyridin-2-yl)-2-oxoethoxy)benzyl)-1,3-thiazolidine-2,4-dione; 2.] Compound Y: 5-(4-(2R)-2-(5-ethylpyridin-2-yl)-2-hydroxyethoxyy)benzyl)-1,3-thiazolidine-2,4-dione; or 3.] Compound Z: 5-(4-(2-(3-methoxyphenyl)-2-oxoethoxy)benzyl)-1,3-thiazolidine-2,4-dione for seven days followed by treatment with 1 μM norepinephrine for 2 hours. Total RNA was isolated from the cells and the RNA message (mRNA) for PGC-1α was measured by quantitative polymerase chain reactions."}, "[2]": {"system": "5XFAD mice", "test": "Thioflavin S stained plaques in the hippocampus of 5XFAD mice", "assay_type": "in vivo", "protocol": "(§1) 5XFAD mice harbor 5 familial mutations (3 in the amyloid precursor protein; 2 in presenilin 1) and develop robust plaque pathology as early as 6 weeks. These mice were treated beginning at 2 months of age for a period of 4 weeks with control chow or chow containing Compound X to deliver 390 mg/kg for 4 weeks.\nReferring to FIG. 7, thioflavin S stained plaques were counted in the hippocampus of the 5XFAD mice. […] Note that the plaques having less than 100 micron size were excluded from the graph, and those amounted to about 70% of all the plaques in both Control and Compound X treated groups."}, "[3]": {"system": "PPARγ", "settings": "dosed to full effect for insulin sensitizing actions in vivo; cited from earlier work"}, "[4]": {"system": "astrocyte marker GFAP", "test": "GFAP astrocyte marker staining of sections from treated mice", "assay_type": "in vivo", "settings": "sections from control and treated mice", "protocol": "as §1"}, "[5]": {"settings": "chow delivering 390 mg/kg for 4 weeks, hippocampus, vs control group"}},
  "data": [
    {"smiles": "COc1cccc(C(=O)COc2ccc(CC3SC(=O)NC3=O)cc2)c1", "note": "(centres unmarked) [Compound Z, 5-(4-(2-(3-methoxyphenyl)-2-oxoethoxy)benzyl)-1,3-thiazolidine-2,4-dione]", "values": [
      {"measurement": "PGC-1α message (mRNA) in the presence of norepinephrine", "setting": "[1]", "value": "increase"}
    ]},
    {"smiles": "CCc1ccc(C(=O)COc2ccc(CC3SC(=O)NC3=O)cc2)nc1", "note": "(centres unmarked) [Compound X, 5-(4-(2-(5-ethylpyridin-2-yl)-2-oxoethoxy)benzyl)-1,3-thiazolidine-2,4-dione]", "values": [
      {"measurement": "number of plaques", "setting": "[2]; [5]", "value": "less than the control group"},
      {"measurement": "size of plaques", "setting": "[2]; [5]", "value": "less than the control group"},
      {"measurement": "plaques having less than 100 micron size, share of all the plaques", "setting": "[2]; same in Control and treated groups, excluded from the graph", "value": "about 70%"},
      {"measurement": "PGC-1α message (mRNA) in the presence of norepinephrine", "setting": "[1]", "value": "increase"}
    ]},
    {"smiles": "CN(CCOc1ccc(CC2SC(=O)NC2=O)cc1)c1ccccn1", "note": "(centres unmarked) [rosiglitazone]", "values": [
      {"measurement": "a P2 expression in the liver", "setting": "[3]", "value": "increase"}
    ]},
    {"smiles": "CCc1ccc(C(=O)COc2ccc(CC3SC(=O)NC3=O)cc2)nc1", "note": "(centres unmarked) [Mitoglitazone]", "values": [
      {"measurement": "average number of GFAP positively stained cells per section, P value control vs treated", "setting": "[4]", "value": 0.012}
    ]},
    {"smiles": "CCc1ccc([C@@H](O)COc2ccc(CC3SC(=O)NC3=O)cc2)nc1", "note": "(some centres unmarked) [Compound Y]", "values": [
      {"measurement": "PGC-1α message (mRNA) in the presence of norepinephrine", "setting": "[1]", "value": "increase"}
    ]}
  ]
}
